Values after ≈ are worked out from the molar mass of the structure shown. “Also recorded” adds a separate entry of the source.
How the values were obtained:
[1] = HPLC-MS analysis of conjugate cleavage, model system with glutathione; assay type: in vitro ADME; settings: reduced, conjugate 150 µM, 30 °C, 0, 30, 120 min
Experimental: (§1) Conjugates 24a–d, containing the TML system, were tested for susceptibility to enzymatic cleavage in the model system with pig liver esterase and in cell-free extract prepared from C. albicans cells. Conjugate 35 containing the o-dithiobenzylcarbamoyl linker was tested in the model system with glutathione and in C. albicans cell-free extract.
(§2) Analysis of cleavage of the conjugates was performed in two experimental systems: (A) model system, in the presence of pig liver esterase or glutathione, reduced; (B) in C. albicans cell-free extract.
Mixtures containing a given conjugate at the initial concentration of 150 µM and pig liver esterase, 5 mg mL^−1 or 10 mM glutathione, reduced, in a total volume of 200 μL were incubated at 30 °C. Samples of 50 μL were collected at zero time, after 30 min, and after 120 min and subjected to HPLC-MS analysis.
(§3) The HPLC-MS system consisted of a liquid chromatograph, a degasser, a binary pomp, an auto-sampler, and a column oven, which was combined with an MS detector with an electrospray source (AJS ESI) and quadrupole analyzer (1260 Infinity II and 6470 Triple Quad LC/MS, Agilent Technologies, Waldbronn, Germany). The ChemStation software was used to control the LC-MS system and for data processing.
Chromatographic separations were performed on an Eclipse XDB-C18 column (150 mm × 4.6 mm, 5 μm). […]

Candida spp. = test: Antifungal in vitro activity, summary statements over the Candida strains tested; assay type: cell-based
Experimental: (§4) The antifungal in vitro activity of conjugates 24a–d and 35 was determined by the serial two-fold dilution method, using the 96-well microtiter plates, in two growth media, RPMI-1640 and YNB-AS, against seven yeast species from the Candida genus. The MIC50 and MIC90 values, i.e., concentrations at which cell growth was inhibited in 50% and 90%, respectively, were measured and compared to those of the intact cispentacin. The concentration values presented in Table 1 and Table 2 are expressed in mM units to allow the comparison of the compounds’ effectiveness at the molecular level. For data expressed in μg mL^−1 units, such comparison is not possible, since the molecular masses of conjugates (≈1755–2114 D range) are 14–16-fold higher than that of cispentacin (128.3 D).
(§5) Susceptibility testing was performed in two growth media: (a) RPMI-1640 w/o sodium bicarbonate, with L-glutamine + 2% glucose + 3.45% MOPS, pH adjusted to 7.0; (b) YNB-AS—Yeast Nitrogen Base w/o amino acids (contains ammonium sulfate 5 g L^−1) + 2% glucose. The in vitro growth inhibitory activity of antifungals was quantified by determination of MIC50 and MIC90 values by the serial two-fold dilution method, using the 96-well microtiter plates. Serial dilutions of cispentacin and its conjugates were prepared in the 4–0.015 mM range.
(§6) Conditions of the RPMI-1640-based assay were the same as outlined in the CLSI recommendations except for the end-point readout that was done by spectrophotometric determination of cell density at 660 nm. Turbidity in individual wells was measured with a microplate reader (Victor^3; Perkin Elmer). The 96-well microtiter plates were also used for the determination of in vitro growth inhibitory activity in YNB-AS medium. Individual wells were inoculated with 5 × 10^3 Candida cells mL^−1 from the overnight culture in YPD medium. The plates were incubated at 37 °C for 24 h, and then, turbidity was measured with a microplate reader at 660 nm, as described above for the RPMI-1640-based assay.
(§7) Values of MIC50 and MIC90 were read from the graphs of A660 vs. drug concentration and corresponded to the interpolated values of drug concentration at which A660 was 50% or 10% of that measured for the drug-free control.

[2] = system: C. albicans cell-free extract; assay type: in vitro ADME, Candida albicans; settings: conjugate 150 µM, 30 °C, 0, 30, 120 min
Experimental: as §1
C. albicans cells were harvested from the culture in YPD medium in the logarithmic phase of growth and washed with PBS, pH 7.4. Then, cells were suspended in a minimal amount of PBS to an optical density OD660 ≈ 1.5. A sample of 1.5 mL of the cell suspension was put into the Lysing Matrix D, 2 mL tubes containing 1.4 mm ceramic spheres (MP Biomedicals). The tubes were vortexed 5 times for 2 min intervals, with 2 min breaks for cooling in the ice/water bath. Finally, the mixtures were centrifuged (10,000× g, 4 °C, 20 min), and the supernatant was pushed through the syringe filter, 0.22 μm pore size, to remove unbroken cells. The thus-obtained cell-free extract was kept at 4 °C and used no later than 5 h after preparation.
as §2
A given conjugate was dissolved in 4 mL of C. albicans cell-free extract to the initial concentration of 150 µM. Mixtures were incubated at 30 °C. Samples of 1 mL were collected at zero time, after 30 min, and after 120 min. The collected samples were immediately de-proteinized by centrifugation (4 °C, 5000× g, 10 min) in Amicon® Ultra-4 Centrifugal Filter Units, 3 kDa cutoff limit. Samples of 50 μL were collected from the filtrates and subjected to HPLC-MS analysis.
as §3
Chromatographic separations were performed on an Eclipse XDB-C18 column (150 mm × 4.6 mm, 5 μm). For the separation, a gradient of mobile phase A (H2O + 0.01% HCOOH) and mobile phase B (100% methanol) was used. The gradient profile was set as follows: 0 min—95% effluent A, 8 min—70% effluent A, 11 min—50% effluent A, 12 min—95% effluent A, 17 min—95% effluent A. The flow rate was 1 mL min^−1, the column temperature was 25 °C, and the injection volume was 20 μL.
The electrospray source operated in a negative mode. The data were collected in a MS scanning mode (MS2 SCAN) with the range 150–700 (m/z).

C. albicans ATCC 10231 [3] = test: Antifungal in vitro activity, serial two-fold dilution, RPMI-1640 medium; assay type: cell-based; settings: Candida albicans, ATCC10231, >>1 = no growth inhibition at 1 mM
Experimental: as §4, with “For data expressed in μg mL^−1 units, such comparison is not possible, since the molecular masses of conjugates (≈1755–2114 D range) are 14–16-fold higher than that of cispentacin (128.3 D).” left out
as §5, with “Serial dilutions of cispentacin and its conjugates were prepared in the 4–0.015 mM range.” left out
(§8) Conditions of the RPMI-1640-based assay were the same as outlined in the CLSI recommendations except for the end-point readout that was done by spectrophotometric determination of cell density at 660 nm. Turbidity in individual wells was measured with a microplate reader (Victor^3; Perkin Elmer). […]

C. albicans B4 [4] = test: Antifungal in vitro activity, serial two-fold dilution, YNB-AS medium; assay type: cell-based; settings: Candida albicans, C. albicans B4 (fluconazole-resistant isolate)
Experimental: as §4
(§9) The reference strains used in this study were Candida albicans ATCC 10231, Candida glabrata DSM 11226, and Candida krusei DSM 6128. C. albicans B3, B4, Gu4, and Gu5 clinical isolates were kindly provided by Joachim Morschhäuser, Würzburg, Germany. Gu4 and B3 are fluconazole-sensitive isolates obtained from early infection episodes, while Gu5 and B4 are the corresponding fluconazole-resistant isolates obtained from later episodes in the same patients treated with fluconazole. Strains were grown at 30 °C in YPD medium (2% glucose, 1% yeast extract, and 1% Bacto-Peptone) and stored on YPD agar plates containing 2% agar.
as §5, §6, §7

[5] = system: Candida glabrata DSM 11226; test: as above; assay type: cell-based; settings: Nakaseomyces glabratus, DSM11226, C. glabrata
Experimental: as §4, §9, §5, §6, §7

C. albicans Gu4 [6] = test: as above; assay type: cell-based; settings: Candida albicans, C. albicans Gu4 (fluconazole-sensitive isolate)
Experimental: as §4, §9, §5, §6, §7

Candida krusei DSM 6128 [7] = test: as above; assay type: cell-based; settings: Pichia kudriavzevii, DSM6128, C. krusei
Experimental: as §4, §9, §5, §6, §7

C. albicans Gu5 [8] = test: as above; assay type: cell-based; settings: Candida albicans, C. albicans Gu5 (fluconazole-resistant isolate)
Experimental: as §4, §9, §5, §6, §7

C. albicans B3 [9] = test: as above; assay type: cell-based; settings: Candida albicans, C. albicans B3 (fluconazole-sensitive isolate)
Experimental: as §4, §9, §5, §6, §7

C. albicans B4 [10] = test: Antifungal in vitro activity, serial two-fold dilution, RPMI-1640 medium; assay type: cell-based; settings: Candida albicans, C. albicans B4 (fluconazole-resistant isolate)
Experimental: as §4, §9, §5, §6, §7

[11] = system: Candida glabrata DSM 11226; test: as above; assay type: cell-based; settings: Nakaseomyces glabratus, DSM11226, C. glabrata
Experimental: as §4, §9, §5, §6, §7

C. albicans Gu4 [12] = test: as above; assay type: cell-based; settings: Candida albicans, C. albicans Gu4 (fluconazole-sensitive isolate)
Experimental: as §4, §9, §5, §6, §7

Candida krusei DSM 6128 [13] = test: as above; assay type: cell-based; settings: Pichia kudriavzevii, DSM6128, C. krusei
Experimental: as §4, §9, §5, §6, §7

C. albicans Gu5 [14] = test: as above; assay type: cell-based; settings: Candida albicans, C. albicans Gu5 (fluconazole-resistant isolate)
Experimental: as §4, §9, §5, §6, §7

C. albicans B3 [15] = test: as above; assay type: cell-based; settings: Candida albicans, C. albicans B3 (fluconazole-sensitive isolate)
Experimental: as §4, §9, §5, §6, §7

C. albicans ATCC 10231 [16] = test: Antifungal in vitro activity, serial two-fold dilution, YNB-AS medium; assay type: cell-based; settings: Candida albicans, ATCC10231, >>1 = no growth inhibition at 1 mM
Experimental: as §4, with “For data expressed in μg mL^−1 units, such comparison is not possible, since the molecular masses of conjugates (≈1755–2114 D range) are 14–16-fold higher than that of cispentacin (128.3 D).” left out
as §5, with “Serial dilutions of cispentacin and its conjugates were prepared in the 4–0.015 mM range.” left out
as §8

[17] = set-up: method as in PMID 15593345; settings: in vitro; cited from earlier work

SMILES: C[C@H](CCC(=O)NCCCCN(CCCNC(=O)CC[C@@H](C)[C@H]1CC[C@H]2[C@@H]3[C@H](OS(=O)(=O)O)C[C@@H]4C[C@H](OS(=O)(=O)O)CC[C@]4(C)[C@H]3C[C@H](OS(=O)(=O)O)[C@]12C)C(=O)CCSSc1ccccc1COC(=O)N[C@H]1CCC[C@H]1C(=O)O)[C@H]1CC[C@H]2[C@@H]3[C@H](OS(=O)(=O)O)C[C@@H]4C[C@H](OS(=O)(=O)O)CC[C@]4(C)[C@H]3C[C@H](OS(=O)(=O)O)[C@]12C [compound 35]
- cleavage / release of cispentacin (HPLC-MS) [1]: found in the chromatogram of post-reaction mixture; also recorded: cleavage was observed
- antifungal activity (Candida spp.; RPMI-1640 medium): devoid of antifungal activity
- antifungal activity (Candida spp.; both growth media (RPMI-1640 and YNB-AS)): inactive in both media
- cleavage / release of cispentacin or its derivative (HPLC-MS) [2]: Neither cispentacin nor the m/z 145.1/145.2 compound was found

SMILES: N[C@H]1CCC[C@H]1C(=O)O [CisP, cispentacin]
- MIC50 (C. albicans ATCC 10231 [3]): 80 µM (≈ 10.3 µg/mL)
- MIC90 (C. albicans ATCC 10231 [3]): 340 µM (≈ 43.9 µg/mL)
- MIC50 (C. albicans B4 [4]): 170 µM (≈ 22 µg/mL)
- MIC90 (C. albicans B4 [4]): 280 µM (≈ 36.2 µg/mL)
- MIC50 [5]: 100 µM (≈ 12.9 µg/mL)
- MIC90 [5]: 500 µM (≈ 64.6 µg/mL)
- MIC50 (C. albicans Gu4 [6]): 150 µM (≈ 19.4 µg/mL)
- MIC90 (C. albicans Gu4 [6]): 180 µM (≈ 23.2 µg/mL)
- MIC50 (Candida krusei DSM 6128 [7]): 90 µM (≈ 11.6 µg/mL)
- MIC90 (Candida krusei DSM 6128 [7]): 150 µM (≈ 19.4 µg/mL)
- MIC50 (C. albicans Gu5 [8]): 270 µM (≈ 34.9 µg/mL)
- MIC90 (C. albicans Gu5 [8]): 390 µM (≈ 50.4 µg/mL)
- MIC50 (C. albicans B3 [9]): 110 µM (≈ 14.2 µg/mL)
- MIC90 (C. albicans B3 [9]): 150 µM (≈ 19.4 µg/mL)
- MIC50 (C. albicans B4 [10]): 340 µM (≈ 43.9 µg/mL)
- MIC90 (C. albicans B4 [10]): 580 µM (≈ 74.9 µg/mL)
- MIC50 [11]: 510 µM (≈ 65.9 µg/mL)
- MIC90 [11]: > 1000 µM
- MIC50 (C. albicans Gu4 [12]): 260 µM (≈ 33.6 µg/mL)
- MIC90 (C. albicans Gu4 [12]): 420 µM (≈ 54.2 µg/mL)
- MIC50 (Candida krusei DSM 6128 [13]): 280 µM (≈ 36.2 µg/mL)
- MIC90 (Candida krusei DSM 6128 [13]): 570 µM (≈ 73.6 µg/mL)
- MIC50 (C. albicans Gu5 [14]): 410 µM (≈ 53 µg/mL)
- MIC90 (C. albicans Gu5 [14]): 640 µM (≈ 82.7 µg/mL)
- MIC50 (C. albicans B3 [15]): 210 µM (≈ 27.1 µg/mL)
- MIC90 (C. albicans B3 [15]): 360 µM (≈ 46.5 µg/mL)
- MIC50 (C. albicans ATCC 10231 [16]): 20 µM (≈ 2.58 µg/mL)
- MIC90 (C. albicans ATCC 10231 [16]): 100 µM (≈ 12.9 µg/mL)

SMILES: C=C1C[C@H](N)[C@H](C(=O)O)C1 [BAY 10-8888]
- metabolism by liver microsomes [17]: not metabolized

— publication PMC8465315, “Molecular Umbrella as a Nanocarrier for Antifungals” (Molecules, 2021)
